# In patent US5098888A, “New heterocyclic tripeptide compounds” (Adir et Compagnie, priority 1989, dated 1992):
# Assays:
# Type in all cases: in vivo
# mice [1] = test: Oxotremorine-induced tremor in mice
# [2] = test system: synaptosomal high-affinity choline uptake (HACU); test: Barbiturate-induced cholinergic deficit in rats
# From the text: This sodium-dependent uptake normally constitutes the limiting factor in acetyl choline synthesis.
# mice [3] = test: Interaction with clonidine (cerebral survival time on sudden cardiac arrest caused by MgCl2); settings: for antagonism of the effect of clonidine: simultaneously with clonidine
compound,measurement,setting,value
"Cn1cnc(C[C@H](NC(=O)[C@@H]2CCC(=O)N2)C(=O)N2[C@H]3CC[C@H](C3)[C@H]2C(N)=O)c1 [Example 1, (S)PyroGlu-(S)(N^.tau. -Me)His-(1S,3S,4R)ABH-NH2]",induction of tremor by the compound itself,mice [1]; 10 mg/kg ip,without itself inducing tremor
"NC(=O)[C@@H]1CCCN1C(=O)[C@H](Cc1c[nH]cn1)NC(=O)[C@@H]1CCC(=O)N1 [TRH, pyroglutamylhistidylprolinamide]",inhibition of narcosis,[2]; 10 mg/kg ip simultaneously with pentobarbital,does not inhibit the narcosis
same,counteraction/inhibition of the fall in HACU induced by the barbiturate,"[2]; 10 mg/kg ip simultaneously with pentobarbital 60 mg/kg ip, HACU measured after 20 minutes of narcosis",-35%
same,boosting of the tremor,mice [1]; 3 mg/kg ip,no longer apparent
same,boosting of the tremor,"mice [1]; 10 mg/kg ip 30 minutes before oxotremorine 0.5 mg/kg ip, measured at peak of action",+90%
same,boosting of the tremor,mice [1]; administered orally (Example 1: 10 mg/kg),no boosting effect
same,boosting effect in the presence of scopolamine,mice [1]; scopolamine 0.01 mg/kg,persists
same,antagonism of the effect of clonidine,mice [3]; 1 mg/kg ip,-20%
same,antagonism of the effect of clonidine,mice [3]; 3 mg/kg ip,-80%
same,effect on its own in the test,mice [3]; without clonidine,without having an effect on its own
Clc1cccc(Cl)c1N=C1NCCN1 [clonidine],increase in the cerebral survival time,mice [3]; sudden cardiac arrest caused by intravenous MgCl2,+60%
CCCC(C)C1(CC)C(=O)NC(=O)NC1=O (stereo not drawn) [pentobarbital],fall in synaptosomal high-affinity choline uptake (HACU),"[2]; 60 mg/kg ip, after 20 minutes of narcosis",-48%
